Results on ten molecules are retold here after ChEMBL document CHEMBL1201862, “PubChem BioAssay data set” (2004).

SMILES strings stand for the structures.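 Protocol summary: plate cells (96-well), add compound at 5 concentrations, incubate 48 h, interpolate endpoints linearly. At the GI50, growth is halved.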 Active and inactive are the calls of the source. No stated cut-off is given here; in the data, active = GI50 up to about 1.1 µM and inactive = higher.

Common to all, as to experiment: NCI anticancer screen, dose series, 48 h
Assay [1] concerns BT-549.
The test system of assay [2] is CCRF-CEM.
Assay [3] relates to DU-145.
The test system of assay [4] is HL-60.
Assay [5] relates to HOP-92.
The subject of assay [6] is HT-29.
For assay [7], the system named is Hs-578T.
The test system of assay [8] is KM12.
The subject of assay [9] is M14.
Assay [10] concerns MCF7.
For assay [11], the system named is MDA-MB-231.
Assay [12] concerns Malme-3M.
Assay [13] deals with OVCAR-8.
The test system of assay [14] is SF-539.
Assay [15] relates to SK-MEL-28.
Assay [16] concerns SK-MEL-2.
The test system of assay [17] is SK-MEL-5.
In assay [18] the test system is SNB-19.
Assay [19] relates to UACC-62.

Turning to `O=C(NNS(=O)(=O)c1ccccc1)c1cccnc1`, the GI50 in assay [1] is > 100 µM (inactive); in assay [2], 59.7 µM (inactive); in [3], > 100 µM (inactive); in assay [4], > 100 µM (inactive); in [5] it was > 100 µM (inactive); in assay [6], > 100 µM (inactive). Besides, the GI50 in [7], in assay [8], in assay [9], in assay [10], in assay [11] and in assay [12] was > 100 µM (inactive) throughout. Further, the GI50 in [13], in assay [14], in assay [15], in assay [16], in [17] and in assay [18] was > 100 µM (inactive) each time. In [19], the GI50 is > 100 µM (inactive).
`O=C1N=NC(=O)N1c1cc(C(F)(F)F)cc(C(F)(F)F)c1`: the GI50 in assay [1] is 3.61 µM (inactive); in assay [2], 3.69 µM (inactive); in [3], 5.28 µM (inactive); in [4], 3.61 µM (inactive); in assay [5], 2.75 µM (inactive); in assay [6], 2.73 µM (inactive). The GI50 in assay [7] was 3.93 µM (inactive); in assay [8], 3.93 µM (inactive); in assay [9], 5.7 µM (inactive); in [10], 3.35 µM (inactive); in [11], 2.38 µM (inactive); in [12] it was 3.83 µM (inactive). For the same molecule, the GI50 was 3.38 µM (inactive) in [13]; 4.86 µM (inactive) in assay [14]; 10.6 µM (inactive) in [15]; 2.2 µM (inactive) in assay [16]; 2.61 µM (inactive) in assay [17]; 4.03 µM (inactive) in assay [18]. For the same molecule, the GI50 in assay [19] is 5.65 µM (inactive).
`COc1ccc(C(=O)/C=C/c2cccnc2)cc1OC`: the GI50 in assay [1] was 6.18 µM (inactive); in [2], 3.51 µM (inactive); in assay [3], 14.6 µM (inactive); in assay [4], 2.36 µM (inactive); in assay [5], 13 µM (inactive); in assay [6], 4.1 µM (inactive). The GI50 in assay [7] was 14.6 µM (inactive); in assay [9], 13.4 µM (inactive); in assay [10], 3.27 µM (inactive); in [11] it was 11.1 µM (inactive); in assay [12], 15.2 µM (inactive); in [13] it was 5.81 µM (inactive). For the same molecule, the GI50 in [14] was 2.73 µM (inactive); in assay [15], 16.2 µM (inactive); in [16], 13.2 µM (inactive); in assay [17], 14.1 µM (inactive); in assay [18], 14.5 µM (inactive); in assay [19], 14 µM (inactive).
Turning to `NC(=O)CCC(CCC(N)=O)(CCC(N)=O)[N+](=O)[O-]`, the GI50 in [1] is > 100 µM (inactive); in assay [2] it was > 10 µM (inactive); in [3], > 100 µM (inactive); in assay [4], > 100 µM (inactive); in [5], > 100 µM (inactive); in assay [6], > 100 µM (inactive). In addition, the GI50 in assay [7], in [8], in assay [9], in [10], in assay [11] and in assay [12] was > 100 µM (inactive) each time. Also, the GI50 in assay [13] was > 100 µM (inactive); in assay [14] it was > 100 µM (inactive); in assay [16], > 100 µM (inactive); in assay [17], > 100 µM (inactive); in [18], 60.8 µM (inactive); in assay [19], > 100 µM (inactive).
Regarding `C[C@]12CC/C(=N\O)C=C1CC[C@@H]1[C@@H]2CC[C@]2(C)C(=N/O)/C(=C/c3ccc([N+](=O)[O-])cc3)C[C@@H]12`, the GI50 was 3.05 µM (inactive) in assay [1]; 2.5 µM (inactive) in assay [2]; 5.35 µM (inactive) in assay [3]; 1.85 µM (inactive) in assay [4]; 3.3 µM (inactive) in assay [5]; 4.94 µM (inactive) in [6]. For the same molecule, the GI50 is 3.5 µM (inactive) in assay [7]; 4.04 µM (inactive) in [8]; 4.05 µM (inactive) in assay [9]; 3.59 µM (inactive) in [10]; 6.64 µM (inactive) in assay [11]; 15 µM (inactive) in assay [12]. Further, the GI50 is 10.4 µM (inactive) in assay [14]; 9.25 µM (inactive) in assay [15]; 3.91 µM (inactive) in assay [16]; 3.21 µM (inactive) in assay [17]; 7.5 µM (inactive) in [18]; 3.52 µM (inactive) in assay [19].
As to `C=C[C@H]1CN2CCc3c([nH]c4c([C@@H]5CCCN5C)c(O)ccc34)[C@@H]2C[C@@H]1C[C@H]1c2[nH]c3ccccc3c2CCN1C`, the GI50 in [1] is 1.47 µM (inactive); in [2] it was 0.00427 µM (active); in assay [3] it was 1.69 µM (inactive); in [4] it was 0.524 µM (active); in [5], 1.4 µM (inactive); in assay [6], 1.28 µM (inactive). Further, the GI50 was 1.67 µM (inactive) in assay [7]; 1.47 µM (inactive) in [8]; 1.09 µM (active) in assay [9]; 1.96 µM (inactive) in assay [10]; 1.76 µM (inactive) in assay [11]; 1.85 µM (inactive) in assay [12]. The GI50 in assay [13] was 1.4 µM (inactive); in assay [14], 1.64 µM (inactive); in [15], 1.79 µM (inactive); in assay [16], 1.85 µM (inactive); in assay [17], 1.57 µM (inactive); in assay [18], 1.64 µM (inactive). In assay [19], the GI50 was 1.83 µM (inactive).
On to `N#CCCCC[N+]12CN3CN(CN(C3)C1)C2`, for which the GI50 in assay [1] was > 100 µM (inactive); in assay [2] it was 64 µM (inactive); in [3], > 100 µM (inactive); in assay [4] it was > 100 µM (inactive); in assay [5], > 100 µM (inactive); in [6], > 100 µM (inactive). In addition, the GI50 in assay [7] was > 100 µM (inactive); in assay [8], > 100 µM (inactive); in assay [9], > 100 µM (inactive); in [10], 45.7 µM (inactive); in assay [11] it was > 100 µM (inactive); in assay [12], > 100 µM (inactive). Also, the GI50 in assay [13] is > 100 µM (inactive); in assay [14] it was 22.6 µM (inactive); in [15], > 100 µM (inactive); in assay [16], > 100 µM (inactive); in assay [17], > 100 µM (inactive); in [18], > 100 µM (inactive). In addition, the GI50 in [19] was > 100 µM (inactive).
For the molecule `NC(Cc1ccnnc1)C(=O)O` (configuration not stated), the GI50 in assay [1], in assay [2], in assay [3], in [4], in assay [5] and in assay [6] was > 100 µM (inactive) throughout. Also, the GI50 in assay [7], in assay [8], in [9], in assay [10], in assay [11] and in [12] was > 100 µM (inactive) each time. The GI50 in [13], in assay [14], in [15], in assay [16], in assay [17] and in assay [18] was > 100 µM (inactive) each time. For the same molecule, the GI50 in assay [19] was > 100 µM (inactive).
For the molecule `CCOc1cc2c(cc1O)CC[C@@H]1[C@@H]2CC[C@]2(C)C(N)CC[C@@H]12` (some centres not stated), the GI50 is 11.2 µM (inactive) in assay [1]; 1.73 µM (inactive) in assay [2]; 2.36 µM (inactive) in assay [3]; 1.42 µM (inactive) in assay [4]; 10.6 µM (inactive) in [5]; 2.44 µM (inactive) in [6]. Also, the GI50 is 3.67 µM (inactive) in [7]; 1.58 µM (inactive) in [8]; 4.05 µM (inactive) in assay [9]; 3.37 µM (inactive) in assay [10]; 2.12 µM (inactive) in assay [11]; 11.8 µM (inactive) in assay [12]. Moreover, the GI50 was 2.71 µM (inactive) in assay [13]; 2.36 µM (inactive) in assay [14]; 9.62 µM (inactive) in [15]; 4.32 µM (inactive) in assay [16]; 3.56 µM (inactive) in [17]; 4.83 µM (inactive) in assay [18]. For the same molecule, in [19], the GI50 is 3.91 µM (inactive).
Regarding `Nc1nc(Cl)c(C=O)c(NCC2(CO)CC(CCc3ccccc3)C2)n1` (configuration not stated), the GI50 in [1] was 12.1 µM (inactive); in [2], 7.85 µM (inactive); in assay [3], 14.8 µM (inactive); in assay [4] it was 1.67 µM (inactive); in [5] it was 1.77 µM (inactive); in [6], 12.4 µM (inactive). Moreover, the GI50 in assay [7] is 22.9 µM (inactive); in assay [8], 13.7 µM (inactive); in assay [9], 2.54 µM (inactive); in assay [10] it was 9.16 µM (inactive); in [11], 7.46 µM (inactive); in [12], 14.1 µM (inactive). Besides, the GI50 in assay [13] is 2.07 µM (inactive); in assay [14], 12.4 µM (inactive); in assay [15], 4 µM (inactive); in assay [16], 3.57 µM (inactive); in [17] it was 8.05 µM (inactive); in [18], 13.7 µM (inactive). The GI50 in assay [19] is 5.38 µM (inactive).
